Laboratory results published in US20230187019A1, “METHOD FOR DETERMINING A DRUG COMBINATION VIA A BLOCKING MODEL OF A MULTI-SITE-TARGETED PROTEIN AND APPLICATIONS THEREOF” (National Tsing Hua University, priority 2021, published 2023).
Where “and” joins values, the source holds several entries; their conditions need not be identical. Equal entries are not always repeated. Where two headings read alike, the source gives them in different places.

How the values were obtained:
MDA-MB-468 = experiment: Cell viability assay by WST-1 on MDA-MB-468; assay type: cell-based, human; conditions: 10 μM, two days, breast MDA-MB-468
Experimental: Three tumor cells were tested, i.e., HCT116 (colorectal cancer), AsPC-1 (pancreatic cancer) and MDA-MB-468 cell lines (breast cancer). Human colorectal carcinoma cell line HCT116 (catalog number: BCRC 60349, Bioresource Collection and Research Center (BCRC), Hsinchu City, Taiwan) was maintained in the culture medium: McCoy's 5a medium (catalog number: 16-600-082, Gibco, Waltham, Mass.) with 1.5 mM L-glutamine (Gibco) and 10% fetal bovine serum (FBS, Gibco). Human pancreatic adenocarcinoma cell line AsPC-1 (catalog number: BCRC 60494, BCRC) was maintained in the culture medium: RPMI 1640 medium (catalog number: 11875168, Gibco) with 2 mM L-glutamine, 4.5 g/L glucose (Gibco), 10 mM HEPES (Gibco), 1 mM sodium pyruvate (Gibco) and 10% fetal bovine serum. […]
For cell viability assay, tumor cells (1×10^5/mL) were suspended in the medium without testing drugs and then inoculated in 96-well plates (100 μL per well) for attachment first. […] Cell proliferation was quantified by using a Premix WST-1 Cell Proliferation Assay System (Takara, Japan). According to the manufacturer's protocol, cell proliferation was determined by measuring the optical density (OD) after the reaction for 3 hours by recording the absorbance at 450 nm using a plate reader (Multiskan Go, Thermo Fisher Scientific).

AK4.4 = experiment: Cell viability assay (MTT) on AK4.4; conditions: for IC50: Mus musculus
Experimental: (§1) The cell viability was measured using the MTT assay or CellTiter-Glo Luminescent Cell Viability Assay. For MTT assay, mouse AK4.4 (1,000 cells/well) and human AsPC-1 (1,500 cells/well) cells were seeded in 96-well plates and cultured in serum-free medium (SFM) containing indicated concentrations of drugs for 48 hours. To measure the cell viability, 15 μL MTT (3-(4,5-dimethylthiazol-2-yl)-2,5-diphenyltetrazolium bromide, 5 mg/mL in PBS) was added in each well and kept at 37° C. for three hours. The precipitated crystals were then dissolved in 50 μL DMSO, and the absorbance at 570 nm was measured by Multiskan GO Microplate Spectrophotometer (Thermo Scientific, USA) to estimate the cell survival rate. To quantify the drug combination effect, the combination index was calculated when the cell viability was reduced by 50% using the following Equation (1):

[1] = system: AK4.4 pancreatic ductal adenocarcinoma (PDAC) xenograft
AsPC-1 = experiment: Cell viability assay (MTT) on AsPC-1
Experimental: as §1

ATG4B = ATG4B (Homo sapiens, UniProt Q9Y4P1); experiment: In vitro cleavage assay of ATG4B catalytic activity (western blot of tagged LC3B); assay type: biochemical
Sequence of ATG4B (Q9Y4P1 whole entry): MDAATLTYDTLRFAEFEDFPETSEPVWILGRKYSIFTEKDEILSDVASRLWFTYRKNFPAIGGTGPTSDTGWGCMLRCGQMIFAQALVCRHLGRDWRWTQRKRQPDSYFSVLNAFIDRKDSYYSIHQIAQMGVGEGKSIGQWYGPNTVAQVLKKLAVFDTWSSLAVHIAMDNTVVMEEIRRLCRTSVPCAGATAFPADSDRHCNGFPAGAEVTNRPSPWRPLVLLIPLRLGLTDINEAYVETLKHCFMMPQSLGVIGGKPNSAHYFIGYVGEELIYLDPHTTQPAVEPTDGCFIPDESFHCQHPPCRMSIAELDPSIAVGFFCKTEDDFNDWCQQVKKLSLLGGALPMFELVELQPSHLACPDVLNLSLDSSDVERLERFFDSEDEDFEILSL
Experimental: The reagents were incubated at 37° C. for 30 minutes and then subjected to western blotting. The intensity of the band in the gel was calculated by using Image Studio Lite from LI-COR Biosciences or ImageJ.
The full-length LC3B fusion protein was used as the negative control and as the positive control when also incubated with ATG4B (FIG. 22A). […] A peptide that can inhibit ATG4B activity will weaken the fluorescence signal produced by the cleaved PLA2.

shATG4B/HCT116 = experiment: Cell viability assay on shATG4B/HCT116 (ATG4B silencing strain); assay type: cell-based, human
shCtrl/HCT116 = experiment: Cell viability assay on shCtrl/HCT116 (control strain); assay type: cell-based, human; conditions: HCT116 (FIG. 13A, shCtrl/HCT116)
LC3B-II = experiment: Western blotting of LC3B-II in AK4.4 and AsPC-1 cells; assay type: cell-based; conditions: AK4.4 and AsPC-1, western blotting
Experimental: Cells were seeded in a 12-well plate (10^5 cells/well) and cultured in serum-free medium (SFM) with different concentrations of drugs for six hours. The plate was then washed with phosphate-buffered saline (PBS), and cells were lysed with 100 μL radioimmunoprecipitation assay buffer (RIPA buffer) for each well. The cell extracts were mixed with 4×dye (900 μL of 4×Laemmli sample buffer+100 μL of 2-mercaptoethanol) at 95° C. for ten minutes and separated by sodium dodecyl sulfate-polyacrylamide gel electrophoresis (SDS-PAGE). The fractions were then transferred to a polyvinylidene fluoride (PVDF) membrane and immersed in 5% nonfat milk at room temperature for one hour. Afterward, the transfer membrane was incubated with protein-specific primary antibodies at 4° C. overnight, washed by PBST (0.1% Tween 20 in PBS), and then incubated with horseradish peroxidase (HRP)-conjugated secondary antibodies at room temperature for one hour. The blots washed by PBST were then detected by enhanced chemiluminescence (ECL) for the quantification of proteins.

3CL^pro = target: T1, 3CL^pro (Severe acute respiratory syndrome coronavirus 2, UniProt P0DTD1); experiment: FRET-based 3CL^pro enzyme activity assay; assay type: biochemical; conditions: single use, 3 to 90 μM
T1 construct: A 3CL^pro (Cat. #78042-1) assay kit (BPS Bioscience, CA, USA); purchased BPS Bioscience 78042-1
Experimental: The intensity of this fluorescence is proportional to the protease activity.
Inhibition percentage is calculated by “1−(Itest−Isubstrate)/(Ipositive−Isubstrate),” where I represents the value of inhibition ability.
The FRET (fluorescence resonance energy transfer)-based assay was designed for 3CL^pro activity assay and explained in FIG. 10. The 3CL^pro enzyme assay was developed in a 96-well black microplate with a total volume of 50 μL. 30 μL of 0.5 ng/μL enzyme in a reaction buffer was added into each well, followed by the addition of 10 μL substrate solution to a final concentration of 40 μM.

[2] = Vb concentration for 50% reduction of viability in combination with 0.50 μM Mx

Structure (SMILES): CC1=C(/C=C/C(C)=C/C=C/C(C)=C/C(=O)Nc2ccc(O)cc2)C(C)(C)CCC1 [Fenretinide]
- suppression of tumor cell growth (MDA-MB-468): seems to be a better breast cancer inhibitor

Structure (SMILES): CCC1=C[C@@H]2CN(C1)Cc1c([nH]c3ccccc13)[C@@](C(=O)OC)(c1cc3c(cc1OC)N(C)[C@H]1[C@@](O)(C(=O)OC)[C@H](OC(C)=O)[C@]4(CC)C=CCN5CC[C@]31[C@@H]54)C2 [Vinorelbine]
- reduced cell viability (AK4.4; AK4.4, 5 μM): 62%
- reduced cell viability (AK4.4; AK4.4, 10 μM): 51%
- reduced cell viability (AK4.4; AK4.4, 20 μM): 24%
- IC50 (AK4.4; read-out: IC50, Vb, vinorelbine alone, AK4.4 (Table 8)): 10.4 µM
- IC50 (AK4.4; read-out: IC50, Vb, vinorelbine alone, AK4.4 (Table 14)): 7.19 µM
- CVb, 50 (AK4.4; [2]): 3.91 µM
- tumor size compared to the control group ([1]; 20 mg/kg, day 16): 70%
- tumor size measured on day 16 versus control group ([1]; dose of 10 mg/kg, days 3, 5, 7, 10, 12, 14): less than half of the tumor size in the control group
- reduced cell viability (AsPC-1; AsPC-1, 5 μM): 68%
- reduced cell viability (AsPC-1; AsPC-1, 10 μM): 61%
- reduced cell viability (AsPC-1; AsPC-1, 20 μM): 46%
- IC50 (AsPC-1; Homo sapiens, ASPC1, read-out: IC50, Vb, vinorelbine alone, AsPC-1 (Table 9)): 17.4 µM
- IC50 (AsPC-1; Homo sapiens, ASPC1, read-out: IC50, Vb, vinorelbine alone, AsPC-1 (Table 15)): 33.1 µM
- viability at 5 µM (AsPC-1; Homo sapiens, ASPC1, read-out: cell viability, AsPC-1, 5 μM vinorelbine alone): 68%
- viability at 10 µM (AsPC-1; Homo sapiens, ASPC1, read-out: cell viability, AsPC-1, 10 μM vinorelbine alone): 61%
- viability at 20 µM (AsPC-1; Homo sapiens, ASPC1, read-out: cell viability, AsPC-1, 20 μM vinorelbine alone): 46%
- CVb, 50 (AsPC-1; [2]): 18.94 µM
- CVb, 50 (AsPC-1; Vb concentration for 50% reduction of viability in combination with 1.00 μM Mx): 9.05 µM
- reduction of the ATG4B activity on LC3B catalysis (ATG4B; 10 μM vinorelbine, FIG. 4B): 42%
- inhibition at 10 µM (ATG4B; read-out: inhibition of ATG4B catalysis): 58%
- reduced cell viability (shATG4B/HCT116): 37% and 43% and 54%
- reduced cell viability (shCtrl/HCT116; 4 μM): 55%
- reduced cell viability (shCtrl/HCT116; 10 μM): 63%
- reduced cell viability (shCtrl/HCT116; 20 μM): 68%
- abundance of LC3B-II in cells (LC3B-II): accumulation of LC3B-II

Structure (SMILES): CC(C)C[C@@H](N)C(=O)N[C@H]1C(=O)N[C@@H](CC(N)=O)C(=O)N[C@H]2C(=O)N[C@H]3C(=O)N[C@H](C(=O)N[C@H](C(=O)O)c4cc(O)cc(O)c4-c4cc3ccc4O)[C@H](O)c3ccc(c(Cl)c3)Oc3cc2cc(c3O[C@@H]2O[C@H](CO)[C@@H](O)[C@H](O)[C@H]2O[C@H]2C[C@](C)(N)[C@H](O)[C@H](C)O2)Oc2ccc(cc2Cl)[C@H]1O [norvancomycin]
- inhibition of 3CL^pro (3CL^pro): 20 to 30%
